Data published in patent US10702518B2, “TAF1 inhibitors for the therapy of cancer” (CeMM—Forschungszentrum für Molekulare Medizin GmbH, priority 2016, dated 2020).

How the values were obtained:
TAF1(BD2) [1] = molecular target: T1, TAF1(BD2) (Homo sapiens, UniProt P21675); test: BROMOscan primary screen, binding to TAF1(BD2); details: for inhibition at 1 µM: read-out: TAF1_BD2 (% inhibition at 1 μM); for TAF1_BD2 (% inhibition at 1 μM): 1 μM compound, DMSO = 0%, 30 μM BI2536 = 100% inhibition
T1 construct: the second bromodomain of TAF1 (TAF1 (2)); purchased DiscoverX Corporation (contract assay); host or cells: T7 phage in E. coli host derived from BL21
T1 sequence (P21675 1519-1628 limits assumed): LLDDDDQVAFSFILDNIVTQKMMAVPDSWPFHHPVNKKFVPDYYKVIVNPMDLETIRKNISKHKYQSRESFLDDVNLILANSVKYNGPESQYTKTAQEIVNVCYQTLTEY
Procedure: The binding of these compounds to TAF1 was tested by DiscoverX Corporation (Fremont, Calif., USA) in a primary screen using the BROMOscan assay, which is a ligand binding site-directed competition assay that allows to quantitatively measure interactions between test compounds and bromodomains (see Fabian et al., 2005 for an explanation of the principle of this assay), according to the following protocol:
(§1) Bromodomain assays: T7 phage strains displaying bromodomains were grown in parallel in 24-well blocks in an E. coli host derived from the BL21 strain. E. coli were grown to log-phase and infected with T7 phage from a frozen stock (multiplicity of infection=0.4) and incubated with shaking at 32° C. until lysis (90-150 minutes). The lysates were centrifuged (5,000×g) and filtered (0.2 μm) to remove cell debris. Streptavidin-coated magnetic beads were treated with biotinylated small molecule or acetylated peptide ligands for 30 minutes at room temperature to generate affinity resins for bromodomain assays. The liganded beads were blocked with excess biotin and washed with blocking buffer (SeaBlock (Pierce), 1% BSA, 0.05% Tween 20, 1 mM DTT) to remove unbound ligand and to reduce non-specific phage binding. […] Test compounds were prepared as 1000× stocks in 100% DMSO and subsequently diluted 1:25 in monoethylene glycol (MEG). The compounds were then diluted directly into the assays such that the final concentrations of DMSO and MEG were 0.1% and 2.4%, respectively. All reactions were performed in polypropylene 384-well plates in a final volume of 0.02 ml. […] The bromodomain concentration in the eluates was measured by qPCR.

REDS3 cells = test: RFP reporter expression in REDS3 cells (live cell imaging); assay type: cell-based, human; details: for confirmed screening hit (RFP induction in REDS3 screen): library screen of 89,355 small molecules; for RFP expression in REDS3 cells: single agent
Procedure: Cells were seeded on clear flat bottom 96-well or 384-well plates (Corning) and treated with the indicated compounds for the specified conditions. Live cell imaging pictures were taken with the Operetta High Content Screening System (PerkinElmer), 20× objective and non-confocal mode.
Only RFP-positive nuclei were detected and counted.
The increase of RFP fluorescence, detected with the Operetta High Content Screening System (PerkinElmer), 20× objective and non-confocal mode, was used as read-out.
Briefly, the screening was divided in three parts called respectively 1) primary screening, 2) follow up and 3) validation. During the primary screening REDS3 cells were treated with 10 μM of every compound, and live cell imaging pictures were taken in order to assess their ability to induce RFP expression 24 hours later.

TAF1(BD2) [2] = molecular target: T1, TAF1(BD2); test: BROMOscan binding constant determination for TAF1(BD2); details: 11-point 3-fold dilution series, read-out: TAF1_BD2 (IC50 μM)
Procedure: as §1, with “100% DMSO. Kds were determined using an 11-point 3-fold compound dilution series with one” for “100%”, “control point. […]” for “and subsequently diluted 1:25 in monoethylene glycol (MEG).”, “concentration” for “concentrations”, “was 0.09%.” for “and MEG were 0.1% and 2.4%, respectively.”, “reactions” for “reactions were”, “plates. Each was” for “plates in”
Compound handling: An 11-point 3-fold serial dilution of each test compound was prepared in 100% DMSO at 1000× final test concentration. […] The compounds were then diluted directly into the assays such that the final concentration of DMSO was 0.09%. Most Kds were determined using a compound top concentration=10,000 nM. If the initial Kd determined was <0.169 nM (the lowest concentration tested), the measurement was repeated with a serial dilution starting at a lower top concentration.
Binding constants (Kds) were calculated with a standard dose-response curve using the Hill equation: […]
The Hill Slope was set to −1. Curves were fitted using a non-linear least square fit with the Levenberg-Marquardt algorithm.
The results thus obtained are reported in the following table as IC50 values [μM] for TAF1(BD2).

THP1 cells [3] = test: AnnexinV apoptosis assay in THP1 cells; details: 72 hours
Procedure: (f) Quantification of AnnexinV positive cells from immunofluorescence images. […] At least 3 biological replicates were performed and more than 1,500 cells were quantified for each point (mean±STD).
Apoptotic cells were detected using the Annexin V-FITC Apoptosis detection kit (Abcam) according to the manufacturer's instruction. Apoptosis quantification was performed with the Harmony software (PerkinElmer) for nuclei and cytoplasm detection and analysis, adapted for the nucleus diameter range and cell shape of the specific cell line used.

THP1 cells [4] = test: Cell cycle assay in THP1 cells; details: 48 hours
Procedure: (e) Quantification of cells in S-phase by staining the nuclei with PI and analyzing DNA content by FACS. […] Three different biological replicates were performed and 30,000 cells were analysed each time (mean±STD).
For cell cycle analysis, cells were fixed with 70% ethanol for 24 hours, washed with PBS/0.1%-Tween and incubated with RNase for 20 minutes. Nuclei were stained with 5 μg/ml PI (propidium iodide, Sigma) for 10 minutes prior to FACS analysis (BD FACSCalibur Flow Cytometer).

[5] = test system: c-MYC expression in WT-KBM7; test: c-MYC expression by RT-PCR in WT-KBM7; assay type: cell-based, human; details: 1, 10 and 20 μM, 24 hours
Procedure: (c) Percentage of c-MYC expression in WT-KBM7 treated with the selected compounds, assessed by RT-PCR. 1, 10 and 20 μM of each compound were used to treat cells for 24 hours; DMSO was used as negative control and (S)-JQ1 as positive control. Three biological replicates were performed (mean±STD).
RNA extraction was performed with TRIzol Reagent (Life Technologies) according to the manufacturer's protocol and Reverse Transcription (RT) was performed using the High Capacity cDNA Reverse Transcription Kit (Applied Biosystems) following the standard protocol.
QPCR was performed using the Power SYBR Green Master mix (Invitrogen) as described in the manufacturer's protocol.
Real-time amplification results were normalized to the endogenous housekeeping genes Actin or GAPDH. The relative quantities were calculated using the comparative CT (Cycle Threshold) Method (ΔΔCT Method).

KBM7 cells = test: CellTiterGlo viability of control and TAF1 downregulated KBM7 cells; details: shRNA TAF1 vs control, 96 hours
TAF1 (2) = molecular target: T2, TAF1 (2) (Homo sapiens, UniProt P21675); test: BromoScan / BromoELECT / BromoKdELECT, TAF1 (2); assay type: binding; details: 10 μM; for binding to TAF1 (2): BromoScan/BromoELECT
T2 construct: the second bromodomain of TAF1 (TAF1 (2)); purchased DiscoverX Corporation (contract assay); host or cells: T7 phage in E. coli host derived from BL21
T2 sequence (P21675 1519-1628 limits assumed): T1 sequence (P21675 1519-1628 limits assumed)
Procedure: (§2) Bubbles indicate the percentage of inhibition of the binding of the analyzed bromodomains to an acetylated substrate. […] (g) BromoKdELECT assay for CeMMEC1 against TAF1 (2). […] (i) Docking of CeMMEC1 to the second bromodomain of TAF1. 3D model (top panel) and 2D ligand interaction diagram (bottom panel). Red dots in the 3D model indicate water molecules.
(§3) (c) not used (d) KinomeScan profile for CeMMEC1 (10 μM). Bubbles indicate the percentage of inhibition of the binding of the analyzed kinase to an immobilized ligand.

CREBBP = CREBBP (Homo sapiens, UniProt Q92793); test: BromoScan / BromoELECT / BromoKdELECT, CREBBP; assay type: binding; details: BromoScan/BromoELECT, 10 μM
Procedure: as §2, §3

THP1 cells [6] = test: Cell viability of THP1 cells, combination with (S)-JQ1; assay type: cell-based, human
H23 cells = test: Cell viability of H23 cells, combination with (S)-JQ1; assay type: cell-based

Sequence of CREBBP (Q92793 1085-1192 limits assumed): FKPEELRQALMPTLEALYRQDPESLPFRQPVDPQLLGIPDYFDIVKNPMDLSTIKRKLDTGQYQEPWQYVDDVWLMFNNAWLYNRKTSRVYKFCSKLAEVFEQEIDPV

COc1cc(NC(=O)c2ccn(C)c(=O)c2)cc(OC)c1 [Compound 4-14]
inhibition at 1 µM (TAF1(BD2) [1]): 20%

Cc1sc2c(c1C)C(c1ccc(Cl)cc1)=N[C@@H](CC(=O)Nc1ccc(O)cc1)c1nnc(C)n1-2 [OXT015]
confirmed screening hit (RFP induction in REDS3 screen) (REDS3 cells; 24 hours): part of this group

COc1cc(OC)c2c(=O)[nH]c(-c3cc(C)c(OCCO)c(C)c3)nc2c1 [RVX208]
confirmed screening hit (RFP induction in REDS3 screen) (REDS3 cells; 24 hours): part of this group

Cn1c(=O)ccc2c(C(=O)Nc3ccc4c(c3)OCCO4)cccc21 [Compound 4-24]
inhibition at 1 µM (TAF1(BD2) [1]): 58%

COc1ccc(C(=O)Nc2cccc3c(=O)n(C)ccc23)cc1 [Compound 4-16]
inhibition at 1 µM (TAF1(BD2) [1]): 34%

Cn1c(=O)cc(C(=O)Nc2ccc(OC(F)(F)F)cc2)c2ccccc21 [Compound 4-3]
inhibition at 1 µM (TAF1(BD2) [1]): 20%

COc1cc(OC)cc(C(=O)Nc2cccc3c2ccc(=O)n3C)c1 [Compound 4-28]
inhibition at 1 µM (TAF1(BD2) [1]): 50%

COc1ccc(CCc2nc3cc(-c4c(C)noc4C)ccc3n2C[C@H](C)N2CCOCC2)cc1Cl [CBP30]
increase of RFP-positive cells compared to DMSO treated cells (REDS3 cells; 10 μM, 24 hours): 1.5 fold

COc1cc2c(cc1-c1c(C)noc1C)ncc1[nH]c(=O)n([C@H](C)c3ccccn3)c12 [I-BET151]
confirmed screening hit (RFP induction in REDS3 screen) (REDS3 cells; 24 hours): part of this group

CC[C@@H]1C(=O)N(C)c2cnc(Nc3ccc(C(=O)NC4CCN(C)CC4)cc3OC)nc2N1C1CCCC1 [BI-2536]
confirmed screening hit (RFP induction in REDS3 screen) (REDS3 cells; 24 hours): part of this group

Cn1c2c(ccc1=O)C(NC(=O)c1ccc3c(c1)OCCO3)CCC2 (stereo not shown) [Compound 4-29]
inhibition at 1 µM (TAF1(BD2) [1]): 32%

COc1ccccc1S(=O)(=O)Nc1ccc2c(c1)CN(C)C(=O)N2 [PFI1]
confirmed screening hit (RFP induction in REDS3 screen) (REDS3 cells; 24 hours): part of this group

Cn1c(=O)cc(C(=O)Nc2ccc3c(c2)OCCO3)c2ccccc21 [Compound 4-1]
IC50 (TAF1(BD2) [2]): 0.25 µM
TAF1_BD2 (% inhibition at 1 μM) (TAF1(BD2) [1]): 89%

Cc1nnc2ccc(NCCC3=CCCCC3)nn12 [CeMMEC2]
apoptosis (AnnexinV staining) (THP1 cells [3]): induced apoptosis
number of cells in S-phase (THP1 cells [4]): clear and dose-dependent decrease of the number of cells in S-phase
c-MYC expression [5]: capable of reducing the expression of this oncogene in a dose-dependent manner
cell viability with TAF1 downregulation (KBM7 cells): synergism

Cn1c2c(ccc1=O)C(NC(=O)c1ccc(OC(F)(F)F)cc1)CCC2 (stereo not shown) [Compound 4-32]
inhibition at 1 µM (TAF1(BD2) [1]): 10%

CCC(=O)N1CCOc2c(cc(-c3ccc(OC)c(OC)c3)cc2OC[C@H]2CCCN(C)C2)C1 [I-CBP112]
RFP expression in REDS3 cells (REDS3 cells): No RFP expression was detected

COc1ccc(C(=O)NC2CCCc3c2ccc(=O)n3C)cc1 (stereo not shown) [Compound 4-31]
inhibition at 1 µM (TAF1(BD2) [1]): 34%

Cn1ccc(C(=O)Nc2ccc3c(c2)OCCO3)cc1=O [Compound 4-10]
inhibition at 1 µM (TAF1(BD2) [1]): 3%

phytohemagglutinin [PHA]
RFP expression in REDS3 cells (REDS3 cells): No increase of RFP-positive nuclei was observed

Cc1sc2c(c1C)C(c1ccc(Cl)cc1)=N[C@@H](CC(=O)OC(C)(C)C)c1nnc(C)n1-2 [(S)-JQ1, reference compound]
apoptosis (AnnexinV staining) (THP1 cells [3]): induced apoptosis
number of cells in S-phase (THP1 cells [4]): clear and dose-dependent decrease of the number of cells in S-phase
lowest concentration causing full activation of RFP signal (REDS3 cells; 24 hours): 0.5 µM
confirmed screening hit (RFP induction in REDS3 screen) (REDS3 cells; 24 hours): part of this group
RFP expression in REDS3 cells (REDS3 cells): clear and robust increase of RFP expression
cell viability with TAF1 downregulation (KBM7 cells): Downregulation of TAF1 decreased cell viability when (S)-JQ1 was used at concentrations not able to affect control cells

Cn1c(=O)ccc2c(NC(=O)c3ccc4c(c3)CCCO4)cccc21 [Compound 4-25]
TAF1_BD2 (% inhibition at 1 μM) (TAF1(BD2) [1]): 4%

CCCCCCCCCCCCCC(=O)O[C@@H]1[C@@H](C)[C@@]2(O)[C@@H](C=C(CO)C[C@]3(O)C(=O)C(C)=C[C@@H]23)[C@@H]2C(C)(C)[C@]12OC(C)=O [PMA, phorbol myristate acetate]
RFP expression in REDS3 cells (REDS3 cells): No increase of RFP-positive nuclei was observed

Cn1ccc(C(=O)Nc2ccc(OC(F)(F)F)cc2)cc1=O [Compound 4-13]
inhibition at 1 µM (TAF1(BD2) [1]): 3%

Cn1ccc2c(NC(=O)c3ccc4c(c3)OCCO4)cccc2c1=O [Compound 30]
IC50 (TAF1(BD2) [2]): 4 µM
RFP expression in REDS3 cells in combination with (S)-JQ1 (REDS3 cells): further boosted RFP expression beyond the increase in single treatments
RFP expression in REDS3 cells (REDS3 cells): comparable induction of RFP expression in REDS3 cells
binding to TAF1 (2) (TAF1 (2)): retaining TAF1 activity
binding to CREBBP (CREBBP): lost all affinity to CREBBP

Cn1ccc2c(NC(=O)c3ccc(OC(F)(F)F)cc3)cccc2c1=O [Compound 4-17]
inhibition at 1 µM (TAF1(BD2) [1]): 11%

Cn1c(=O)cc(C(=O)Nc2ccc3c(c2)OCCO3)c2ccccc21 [Compound 29]
IC50 (TAF1(BD2) [2]): 3.1 µM
synergy with (S)-JQ1 (Bliss independence test) (THP1 cells [6]): the most effective
synergy with (S)-JQ1 (Bliss independence test) (H23 cells): the most effective
RFP expression in REDS3 cells in combination with (S)-JQ1 (REDS3 cells): further boosted RFP expression beyond the increase in single treatments
RFP expression in REDS3 cells (REDS3 cells): comparable induction of RFP expression in REDS3 cells
selectivity among BRD4 (1), BRD9, CREBBP, EP300 and TAF1 (2) (TAF1 (2); BromoELECT): high selectivity for the TAF1 (2) bromodomain
binding to TAF1 (2) (TAF1 (2)): retaining TAF1 activity
binding to CREBBP (CREBBP): lost all affinity to CREBBP

Cc1cnc(Nc2ccc(OCCN3CCCC3)cc2)nc1Nc1cccc(S(=O)(=O)NC(C)(C)C)c1 [TG-101348]
confirmed screening hit (RFP induction in REDS3 screen) (REDS3 cells; 24 hours): part of this group

COc1ccc(C(=O)Nc2cccc3c2ccc(=O)n3C)cc1 [Compound 4-26]
IC50 (TAF1(BD2) [2]): 0.056 µM
TAF1_BD2 (% inhibition at 1 μM) (TAF1(BD2) [1]): 82%

COc1cc(OC)cc(C(=O)NC2CCCc3c2ccc(=O)n3C)c1 (stereo not shown) [Compound 4-33]
inhibition at 1 µM (TAF1(BD2) [1]): 11%

COc1cc(NC(=O)c2cc(=O)n(C)c3ccccc23)cc(OC)c1 [Compound 4-4]
inhibition at 1 µM (TAF1(BD2) [1]): 48%

COc1ccc(NC(=O)c2cc(=O)n(C)c3ccccc23)cc1 [Compound 4-2]
inhibition at 1 µM (TAF1(BD2) [1]): 9%
